{"source": "patent US20250276999A1", "about": "“PEPTIDES FOR PROMOTING HAIR FOLLICLE NEOGENESIS, AND PREVENTION/MITIGATION OF UNTOWARD EFFECTS OF RADIATION TREATMENT” (Trustees of Tufts College, priority 2022, published 2025)", "tested_on": "hair follicle neogenesis", "assay": "Patch assay, hair follicle neogenesis in vivo", "design": "species or system nu/nu mouse", "details": "100 μM peptide vs scrambled peptide, N=3 patches (FIG. 2)", "description": "Next, we used a patch assay to test is TSN peptides can induce hair follicle neogenesis in vivo. Epidermal aggregates were resuspended in DMEM/F12 at 750,000 aggregates/750 μL (1000 aggregates/μL) and spheroids were resuspended in DMEM/F12 at 1400 spheroids/140 μL (10 spheroids/μL). 10 million dermal cells were resuspended in 400 μL DMEM/F12 (25,000 cell/μL or 1.25E6 per 50 μL). […] Using a dissecting microscope the number of hair follicles were counted for each implantation from the mucosal side of the skin (FIG. 2).\nPreparation of spheroids: Dermal Papilla (DP) cells were trypsinized, neutralized and counted. […]\nPreparation of epidermal Cell aggregates: From 12 neonatal foreskins, the epidermis was separated from the dermis using dispase incubation overnight. […] The final pellet was resuspended in 6 mL DMEM/F12 (for 12 skins) and the aggregates were counted using hemocytometer. […]"}
{"sequence": "HSPDIQLQKGLTFEPIQIK [TSN6, 19 amino acid peptide derived from multimerin-1, Coiled coil domain]", "values": [{"measurement": "number of hair follicles (hair follicle formation)", "value": "two-fold increase"}]}
